According to US9701646B2, “Small molecule inhibitors of PI3-kinase signaling” (Tufts University, priority 2013, dated 2017):
Read-outs that look alike come from different tables or passages of the source.

Assays:
[1] = test system: U87MG human glioblastoma cells; assay: Cell viability of U87MG cells, ATP assay; assay type: cell-based; conditions: Homo sapiens, U-87 MG, 24 h
Description: U87MG human glioblastoma cells were maintained in culture at 37° C., 5% CO2, complete medium for 24 h in the presence of various final concentrations of YK-NCL-176, YK-NCL-177, YK-NCL-178, YK-NCL-179, YK-NCL-180, YK-NCL-183, YK-NCL-184, YK-NCL-185, YK-NCL-186, YK-NCL-187, YK-NCL-188, YK-NCL-189, YK-NCL-190, YK-NCL-191, YK-NCL-192, YK-NCL-193, YK-NCL-194, YK-NCL-195, YK-NCL-196, YK-NCL-197, NK-YCL-198, or YK-NCL-199, each in DMSO, with or without 1 μg/mL TRAIL. DMSO alone was used as a negative control. Following the incubation, cell viability was measured using an ATP assay.

[2] = Micellar drug release by dialysis; assay type: physicochemical; conditions: 37° C.
Description: Drug-loaded micelles were analyzed for their in vitro drug release profile at 37° C. in 1×PBS pH 7.4 over 48 hrs. Micelles were prepared as described previously. 500 μL of drug-loaded micelles were aliquoted into Spectra/Pro® regenerated cellulose dialysis membranes with a MWCO of 1,000 Da and dialyzed against a large excess of 1×PBS pH 7.4. At predetermined times, dialysis bags were opened and aliquots of sample were taken and diluted with 200 μL acetonitrile. Drug concentration was determined by HPLC using previously described methods.

A2780 ovarian carcinoma = assay: A2780 cell viability, CellTiter-Blue, free and micellar formulations; assay type: cell-based, human
Description: Cell viability of A2780 ovarian carcinoma was measured using CellTiter-Blue® (Promega, Madison, Wis.) viability assay. Briefly, cells were seeded in 96-well plates according to proper cell densities (3,000-5,000 cells). After 24 h incubation in 5% CO2 at 37° C., cells were treated with formulations at various concentrations for 24 h in serum complete media. After 24 h treatment, media was removed, the wells were washed with serum complete media and replaced with 50 μL media and 10 μL CellTiter-Blue®. Cell viability was evaluated after 4 h of incubation at 37° C. at 5% CO2 by measuring the fluorescence (ex. 550 nm, em. 590 nm) using a Synergy HT multi-detection microplate reader (Biotek, Winooski, Vt.).

[3] = test system: A2780 human ovarian cancer cells; assay: Cell viability of A2780 cells, ATP assay; assay type: cell-based; conditions: A2780, 24 h; for EC50: Homo sapiens; for cell viability in combination with TRAIL: versus compound alone
Description: (§1) A2780 human ovarian cancer cells were maintained in culture at 37° C., 5% CO2, complete medium for 24 h in the presence of various final concentrations of DM-PIT-1, YK-NCL-176, YK-NCL-198, or NK-YCL-240, each in DMSO, with or without 1 μg/mL TRAIL. DMSO alone was used as a negative control. Following the incubation, cell viability was measured using an ATP assay.
as §1, with “YK-NCL-217, YK-NCL-218, NK-YCL-219, YK-NCL-220, YK-NCL-234,” for “YK-NCL-176, YK-NCL-198,”, “YK-NCL-241,” for “NK-YCL-240,”

A2780 cells = assay: In vitro wound closure (cell migration), A2780; assay type: cell-based, human; conditions: A2780, up to 76 h
Description: A2780 cells and T47D cells were grown to confluence in separate cultures under conditions of 37° C., 5% CO2, and complete medium. At time zero, a pipette tip was dragged across the cells, producing a linear defect in the confluent layer of cells. Medium was then supplemented with various concentrations of DM-PIT-1, YK-NCL-176, or YK-NCL-240, or an equivalent volume of DMSO alone, and cells were maintained in culture for an additional 76 h. Linear defects were viewed with a microscope at 0, 21, 47, 69, and 76 h following addition of test agent, and the width of the defect was quantitated at each time point. This in vitro assay represents a model of wound closure.

[4] = Micellar drug loading by reverse phase HPLC; assay type: physicochemical; conditions: PEG-PE micelles, PEG-PE 13.07 mg/mL, n = 3 with SD
Description: Drug incorporation efficiency was measured by reverse phase HPLC using an Xbridge C18 ([…]) column (Waters Corporation, Milford, Mass.) on a Hitachi Elite LaChrom HPLC with autosampler (Pleasanton, Calif.). The HPLC method was modified from previously published method. Skidan I et al., J Chromatogr B Analyt Technol Biomed Life Sci 879:1610-1616 (2011). The mobile phase consisted of either 70:30 acetonitrile:water (DM-PIT-1) or 60:40 acetonitrile:water (NCL-176, NCL-179, NCL-198, NCL-240) with a flow rate of 1 mL/min. Detection of drug was performed at a wavelength corresponding to a peak on the absorption spectrum (DM-PIT-1: 320 nm, NCL-176: 260 nm, NCL-179: 295 nm, NCL-198: 295 nm, NCL-240: 300 nm). Sample injections were kept constant at 50 μL and the sample runtime was 10 min. Concentration of drug was determined by measuring the area under curve of the peak. Standard curves of stock drug in acetonitrile from concentrations of 10 μg/mL to 15 ng/mL were used to determine incorporation of drug in micelles. 5 μL of dialyzed drug-loaded micelles were diluted in 495 μL acetonitrile to destroy micelles.

[5] = in DMSO, without TRAIL, read-out: EC50 alone
[6] = with 1 μg/mL TRAIL, read-out: EC50 with TRAIL

EC50 [1, 5] [µM] | EC50 [1, 6] [µM] | Molecule | further results
48.9 | 42.3 | O=C(c1ccccc1)c1cn(-c2ccc(Cl)cc2O)nn1 [YK-NCL-191] | 
> 100 | > 100 | O=C(c1ccc2ccccc2c1)c1cn(-c2ccc([N+](=O)[O-])cc2O)nn1 [YK-NCL-189] | 
36.7 | 20.4 | Oc1ccc(Cl)cc1-n1cc(C(O)(c2ccccc2)c2cn(-c3cc(Cl)ccc3O)nn2)nn1 [YK-NCL-179, 2,2′-(4,4′-(hydroxy(phenyl)methylene)bis(1H-1,2,3-triazole-4,1-diyl))bis(4-chlorophenol)] | drug released from micelles ([2]; 1×PBS pH 7.4, after 48 h): 40%; cytotoxicity as free compound compared to DM-PIT-1 (A2780 ovarian carcinoma; A2780, 24 h, free compound): improved cytotoxicity properties
> 100 | > 100 | COc1ccc(Cl)cc1-n1nncc1C(=O)c1ccccc1 [YK-NCL-177] | 
> 100 | > 100 | Cc1ccc(O)c(-n2cc(C(=O)c3ccccc3)nn2)c1 [YK-NCL-184] | 
85.2 | 74.9 | Cc1cccc(O)c1-n1cc(C(=O)c2ccc3ccccc3c2)nn1 [YK-NCL-187] | 
104 | 98.4 | Cc1cc(C)cc(C(=O)c2cn(-c3c(C)cccc3O)nn2)c1 [YK-NCL-192] | 
8.1 | 8 | Cc1cccc(O)c1-n1cc(C(=O)c2ccccc2)nn1 [YK-NCL-185] | 
> 100 | > 100 | COc1ccc(Cl)cc1-n1cc(C(=O)c2ccccc2)nn1 [YK-NCL-178] | 
> 100 | 64.4 | Cc1cc(C)cc(C(=O)c2cn(-c3ccc(Cl)cc3O)nn2)c1 [YK-NCL-183] | 
64.1 | 41.6 | CC(C)c1ccc(C(=O)c2cn(-c3cc(Cl)ccc3O)nn2)cc1 [YK-NCL-195] | 

The next lines start with the molecule.

Molecule | EC50 [1, 5] [µM] | EC50 [1, 6] [µM] | further results
Cc1cccc(O)c1-n1cc(C(=O)c2ccc(C(C)C)cc2)nn1 [YK-NCL-196] | > 100 | > 100 | 
CC(C)c1ccc(C(=O)c2cn(-c3ccc([N+](=O)[O-])cc3O)nn2)cc1 [YK-NCL-199] | > 100 | 95.3 | 
O=C(c1ccc2ccccc2c1)c1cn(-c2cc(Cl)ccc2O)nn1 [YK-NCL-186] | > 100 | > 100 | 
Oc1ccc(Cl)cc1-n1cc(CC(O)(c2ccccc2)c2cn(-c3cc(Cl)ccc3O)nn2)nn1 (stereo not drawn) [YK-NCL-241] |  |  | EC50 [3, 5]: > 100 µM; EC50 [3, 6]: > 100 µM
O=C(NCc1cn(-c2cc(Cl)ccc2O)nn1)c1cc(C(F)(F)F)cc(C(F)(F)F)c1 [YK-NCL-234] |  |  | EC50 [3, 5]: 16.2 µM; EC50 [3, 6]: 14 µM
Cc1cc(C)cc(C(=O)c2cn(-c3cc(Cl)ccc3O)nn2)c1 [YK-NCL-190] | 57.8 | 30.6 | 
Cc1ccc(O)c(-n2cc(C(O)(c3ccccc3)c3cn(-c4cc(C)ccc4O)nn3)nn2)c1 [YK-NCL-219] |  |  | EC50 [3, 5]: 24.1 µM; EC50 [3, 6]: 9.2 µM
Cc1cc(C)cc(C(O)(c2cn(-c3c(C)cccc3O)nn2)c2cn(-c3c(C)cccc3O)nn2)c1 [YK-NCL-220] |  |  | EC50 [3, 5]: > 100 µM; EC50 [3, 6]: 16.9 µM
Cc1cc(C)cc(C(=O)c2cn(-c3ccc([N+](=O)[O-])cc3O)nn2)c1 [YK-NCL-194] | 89.1 | 70.5 | 
Cc1cccc(O)c1-n1cc(C(O)(c2ccccc2)c2cn(-c3c(C)cccc3O)nn2)nn1 [YK-NCL-218] |  |  | EC50 [3, 5]: > 100 µM; EC50 [3, 6]: 22.8 µM
Cc1ccc(O)c(-n2cc(C(=O)c3ccc4ccccc4c3)nn2)c1 [YK-NCL-188] | > 100 | > 100 | 
COc1ccc(Cl)cc1-n1cc(C(O)(c2ccccc2)c2cn(-c3cc(Cl)ccc3OC)nn2)nn1 [YK-NCL-180] | > 100 | > 100 | 
Cc1cccc(O)c1-n1cc(C(O)(c2cc(C(F)(F)F)cc(C(F)(F)F)c2)c2cn(-c3c(C)cccc3O)nn2)nn1 [YK-NCL-217] |  |  | EC50 [3, 5]: 50.9 µM; EC50 [3, 6]: 13.5 µM
Cc1ccc(O)c(-n2cc(C(=O)c3ccc(C(C)C)cc3)nn2)c1 [YK-NCL-197] | > 100 | > 100 | 
O=C(c1ccccc1)c1cn(-c2cc(Cl)ccc2O)nn1 [YK-NCL-176, (1-(5-Chloro-2-hydroxyphenyl)-1H-1,2,3-triazol-4-yl)(phenyl)methanone] | 104 | 51.6 | drug released from micelles ([2]; 1×PBS pH 7.4, at 10 h): completely released; inhibition of cell migration (wound closure) (A2780 cells): significantly more effectively than DM-PIT-1; Loading Eff. [4]: slightly lower loading; concentration at which cell viability was reduced by at least 50 percent ([3]; alone): 25 µM; cell viability in combination with TRAIL ([3]; with 1 μg/mL TRAIL): further reduced cell viability; cytotoxicity on addition of TRAIL to the formulation (A2780 ovarian carcinoma; A2780, micellar formulation plus TRAIL): markedly increased cytotoxicity
Cc1cc(C)cc(C(=O)NC(=S)Nc2cc([N+](=O)[O-])ccc2O)c1 [DM-PIT-1, N-[(2-hydroxy-5-nitrophenyl)amino]carbonothioyl-3,5-dimethylbenzamide, reference compound] |  |  | drug released from micelles ([2]; 1×PBS pH 7.4, at 10 h): completely released; Loading Eff. [4]: slightly lower loading; concentration at which cell viability was reduced by at least 50 percent ([3]; alone): 25 µM; cell viability in combination with TRAIL ([3]; with 1 μg/mL TRAIL): further reduced cell viability; EC50 [3, 5]: 30.5 µM; EC50 [3, 6]: 18.7 µM
Cc1cc(C)cc(C(=O)c2cn(-c3cc(C)ccc3O)nn2)c1 [YK-NCL-193] | > 100 | > 100 | 
TRAIL: Tumor necrosis factor (TNF)-related apoptosis-inducing ligand; recombinant His6-tagged human TRAIL produced in E. coli (protein, UniProt P50591 1-281, looked up, His6 tag, Tumor necrosis factor (TNF)-related apoptosis-inducing ligand; recombinant His6-tagged human TRAIL produced in E. coli) Tumor necrosis factor ligand …: MAMMEVQGGPSLGQTCVLIVIFTVLLQSLCVAVTYVYFTNELKQMQDKYSKSGIACFLKEDDSYWDPNDEESMNSPCWQVKWQLRQLVRKMILRTSEETISTVQEKQQNISPLVRERGPQRVAAHITGTRGRSNTLSSPNSKNEKALGRKINSWESSRSGHSFLSNLHLRNGELVIHEKGFYYIYSQTYFRFQEEIKENTKNDKQMVQYIYKYTSYPDPILLMKSARNSCWSKDAEYGLYSIYQGGIFELKENDRIFVSVTNEHLIDMDHEASFFGAFLVG |  |  | effect on cell viability ([3]; alone, 1 μg/mL): essentially no effect on cell viability
